Source: ChEMBL document CHEMBL1926566, “Molecular docking studies of a phlorotannin, dieckol isolated from Ecklonia cava with tyrosinase inhibitory activity” (Bioorg Med Chem, 2012)
pIC50: −log10 of the molar value. The source made the active and inactive calls. The rule behind the calls is not given here.

Columns and labels:
[1] = target: T1, Tyrosinase (Mus musculus) (UniProt P11344); experiment: Inhibition of tyrosinase in alpha-MSH-stimulated mouse B16F10 cells assessed as inhibition of L-DOPA oxidation at 40 to 120 uM after 72 hrs by spectrophotometry; type: cell-based; settings: B16-F10
T1 sequence (whole entry): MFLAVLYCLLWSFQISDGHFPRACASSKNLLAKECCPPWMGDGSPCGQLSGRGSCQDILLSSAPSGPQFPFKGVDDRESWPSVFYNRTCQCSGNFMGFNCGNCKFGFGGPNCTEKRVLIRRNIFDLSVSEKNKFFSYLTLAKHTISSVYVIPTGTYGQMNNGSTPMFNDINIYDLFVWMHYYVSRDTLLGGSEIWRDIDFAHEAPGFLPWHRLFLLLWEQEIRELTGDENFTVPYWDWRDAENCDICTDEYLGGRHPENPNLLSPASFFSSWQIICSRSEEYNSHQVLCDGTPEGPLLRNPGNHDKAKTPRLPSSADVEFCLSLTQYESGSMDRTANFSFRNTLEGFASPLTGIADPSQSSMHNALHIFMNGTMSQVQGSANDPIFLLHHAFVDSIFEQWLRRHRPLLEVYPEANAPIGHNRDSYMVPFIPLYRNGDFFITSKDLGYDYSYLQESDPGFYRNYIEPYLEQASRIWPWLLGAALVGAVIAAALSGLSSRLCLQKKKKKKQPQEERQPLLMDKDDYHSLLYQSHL

B16-F10 = experiment: Antimelanogenic activity in mouse B16F10 cells assessed as inhibition of alpha-MSH-induced melanin formation at 40 to 120 uM after 72 hrs by spectrophotometry; type: functional, cell-based
[2] = target: T2, Tyrosinase (Agaricus bisporus) (UniProt O42713); experiment: (§1) Inhibition of mushroom tyrosinase hydroxylation activity using L-tyrosine as substrate after 30 mins by spectrophotometry
T2 sequence (whole entry): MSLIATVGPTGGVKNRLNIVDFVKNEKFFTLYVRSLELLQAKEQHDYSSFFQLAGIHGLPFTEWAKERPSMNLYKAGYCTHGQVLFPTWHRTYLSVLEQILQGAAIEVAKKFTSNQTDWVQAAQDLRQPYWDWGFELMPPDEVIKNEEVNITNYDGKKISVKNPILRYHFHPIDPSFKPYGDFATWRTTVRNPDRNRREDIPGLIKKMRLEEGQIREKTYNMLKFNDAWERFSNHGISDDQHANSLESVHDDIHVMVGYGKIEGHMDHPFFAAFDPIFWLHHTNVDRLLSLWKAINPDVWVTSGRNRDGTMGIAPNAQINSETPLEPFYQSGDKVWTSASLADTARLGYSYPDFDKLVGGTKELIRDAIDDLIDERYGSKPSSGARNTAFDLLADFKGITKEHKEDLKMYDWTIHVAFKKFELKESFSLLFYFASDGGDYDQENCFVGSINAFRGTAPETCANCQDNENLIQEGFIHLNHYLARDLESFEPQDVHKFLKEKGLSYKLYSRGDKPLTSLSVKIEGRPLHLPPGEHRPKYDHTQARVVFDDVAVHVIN

Tyrosinase = target: T3, Tyrosinase (Agaricus bisporus, UniProt O42713); experiment: as §1
T3 sequence (O42713 whole entry): T2 sequence (whole entry)

[3] = target: T2, Tyrosinase (Agaricus bisporus); experiment: Inhibition of mushroom tyrosinase hydroxylation activity using L-tyrosine as substrate at 120 uM after 30 mins by spectrophotometry
[4] = target: T2, Tyrosinase (Agaricus bisporus); experiment: Non-competitive inhibition of mushroom tyrosinase assessed as inhibition of dopachrome formation by Lineweaver-Burk plot analysis
[5] = Cytotoxicity against mouse B16F10 cells assessed as cell viability at 40 to 120 uM after 72 hrs by MTT assay; type: cell-based, B16-F10

SMILES	inhibition [1]	Activity (B16-F10)	inhibition [2]	pIC50 (Tyrosinase)	inhibition [3]	inhibition [4]	viability at 72 h, up to 120 µM [5]
OC[C@H]1O[C@@H](Oc2ccc(O)cc2)[C@H](O)[C@@H](O)[C@@H]1O	Active	Active					
Oc1cc(O)cc(Oc2c(O)cc(O)c3c2Oc2c(O)cc(Oc4c(O)cc(Oc5c(O)cc(O)c6c5Oc5c(O)cc(O)cc5O6)cc4O)cc2O3)c1 [DIECKOL]	Active	Active	Dose-dependent effect	4.70	89.3%	Active	> 95%
